Source: US20210047324A1 (Aptinyx Inc., priority 2018, published 2021)

Key:
Sprague Dawley rats = experiment: Porsolt forced swim test; type: in vivo; details: 0.1 mg/kg
NMDAR2A = molecular target: T1, NMDAR2A (Homo sapiens, UniProt Q12879); experiment: NMDAR agonist assay, [3H]MK-801 binding, NMDAR2A expressing HEK cell membranes; type: biochemical; set-up: key to NMDAR2A B: log EC50: 0=−; ≥1×10^−9 M (e.g., −8)=+; <1×10^−9 M (e.g., −10)=++; details: 50 μM glutamate
T1 construct: expressed in transfected cells; host or cells: HEK cells (membrane extract)
Summary of the method: (§1)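 Membranes from HEK cells (300 μg protein) preincubated 15 min with 50 μM glutamate plus compound (1×10^−15–1×10^−7 M) or 1 mM glycine, then with 0.3 μCi [3H]MK-801 for 15 min at 25° C. (nonequilibrium); filter-bound DPM, baseline-subtracted, expressed as % of 1 mM glycine; EC50 and % maximum from three-parameter fit.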

NMDAR2D [1] = molecular target: T2, NMDAR2D (Homo sapiens, UniProt O15399+Q05586); experiment: NMDAR agonist assay, [3H]MK-801 binding, NMDAR2D expressing HEK cell membranes; type: biochemical; details: 50 μM glutamate; read-out: NMDAR2D B: log EC50 (converted)
T2 construct: expressed in transfected cells; host or cells: HEK cells (membrane extract)
T2 sequence (O15399 28-1336, species assumed, other chains not shown): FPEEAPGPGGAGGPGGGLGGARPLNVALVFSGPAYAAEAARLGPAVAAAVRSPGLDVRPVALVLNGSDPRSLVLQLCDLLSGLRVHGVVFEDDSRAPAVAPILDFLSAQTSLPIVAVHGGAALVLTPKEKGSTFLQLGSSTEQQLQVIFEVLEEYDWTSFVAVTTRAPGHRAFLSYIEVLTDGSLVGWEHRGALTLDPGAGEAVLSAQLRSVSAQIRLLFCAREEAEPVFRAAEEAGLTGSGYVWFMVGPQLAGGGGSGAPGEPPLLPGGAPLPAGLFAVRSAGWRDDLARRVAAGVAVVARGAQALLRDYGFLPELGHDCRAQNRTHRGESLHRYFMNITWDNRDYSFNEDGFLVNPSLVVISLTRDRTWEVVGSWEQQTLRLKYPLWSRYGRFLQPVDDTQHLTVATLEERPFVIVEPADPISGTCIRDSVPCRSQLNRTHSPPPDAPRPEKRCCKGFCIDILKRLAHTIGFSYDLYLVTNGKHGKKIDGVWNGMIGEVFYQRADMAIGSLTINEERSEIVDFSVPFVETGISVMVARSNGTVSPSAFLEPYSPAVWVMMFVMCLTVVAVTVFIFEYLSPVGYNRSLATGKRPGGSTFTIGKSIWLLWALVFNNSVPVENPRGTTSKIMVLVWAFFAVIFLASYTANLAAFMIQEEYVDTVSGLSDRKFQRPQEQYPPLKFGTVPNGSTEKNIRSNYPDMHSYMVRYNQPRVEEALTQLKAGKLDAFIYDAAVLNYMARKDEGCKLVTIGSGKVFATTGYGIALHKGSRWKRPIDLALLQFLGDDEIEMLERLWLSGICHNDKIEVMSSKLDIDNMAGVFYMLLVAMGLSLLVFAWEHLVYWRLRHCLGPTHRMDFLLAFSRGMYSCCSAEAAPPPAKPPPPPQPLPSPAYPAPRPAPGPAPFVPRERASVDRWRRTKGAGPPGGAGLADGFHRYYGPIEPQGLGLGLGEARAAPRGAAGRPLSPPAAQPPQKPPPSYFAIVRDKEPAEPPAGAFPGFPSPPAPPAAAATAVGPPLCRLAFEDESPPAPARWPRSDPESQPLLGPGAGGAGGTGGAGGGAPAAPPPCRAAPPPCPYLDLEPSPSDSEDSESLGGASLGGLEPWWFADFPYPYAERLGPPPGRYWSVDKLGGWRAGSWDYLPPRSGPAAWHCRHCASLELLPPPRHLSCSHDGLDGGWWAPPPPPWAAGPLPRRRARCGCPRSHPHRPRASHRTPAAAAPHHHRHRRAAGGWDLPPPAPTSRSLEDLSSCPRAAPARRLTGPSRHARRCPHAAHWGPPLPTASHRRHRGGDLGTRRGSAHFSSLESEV
Procedure: (§2) Assays were conducted as described by Moskal et al., “GLYX-13: a monoclonal antibody-derived peptide that acts as an N-methyl-D-aspartate receptor modulator,” Neuropharmacology, 49, 1077-87, 2005. These studies were designed to determine if the test compounds act to facilitate NMDAR activation in NMDAR2A, NMDAR2B, NMDAR2C or NMDAR2D expressing HEK cell membranes as measured by increases in [^3H]MK-801 binding.
(§3) In the assay, 300 μg of NMDAR expressing HEK cell membrane extract protein was preincubated for 15 minutes at […] in the presence of saturating concentrations of glutamate (50 μM) and varying concentrations of test compound (1×10^−15M-1×10^−7M), or 1 mM glycine. Following the addition of 0.3 μCi of [3H]MK-801 (22.5 Ci/mmol), reactions were again incubated for 15 minutes at 25° C. (nonequilibrium conditions). Bound and free [3H]MK-801 were separated via rapid filtration using a Brandel apparatus.
(§4) In analyzing the data, the DPM (disintegrations per minute) of [3H]MK-801 remaining on the filter were measured for each concentration of test compound or for 1 mM glycine. The DPM values for each concentration of a ligand (N=2) were averaged. The baseline value was determined from the best fit curve of the DPM values modeled using the GraphPad program and the log(agonist) vs. response (three parameters) algorithm was then subtracted from all points in the dataset. The % maximal [^3H]MK-801 binding was then calculated relative to that of 1 mM glycine: all baseline subtracted DPM values were divided by the average value for 1 mM glycine. The EC50 and % maximal activity were then obtained from the best fit curve of the % maximal [3H]MK-801 binding data modelled using the GraphPad program and the log(agonist) vs. response (three parameters) algorithm.
(§5) The tables below summarize the results for the wild type […] NMDAR2A, NMDAR2B, NMDAR2C, and NMDAR2D, and whether the compound is not an agonist (−), is an agonist (+), or is a strong agonist (++), where column A is based on the % maximal [3H]MK-801 binding relative to 1 mM glycine (−=0; <100%=+; and >100%=++); and column B is based on log EC50 values (0=−; ≥1×10^−9 M (e.g., −8)=+; and <1×10^−9 M (e.g., −10)=++).

NMDAR2D [2] = molecular target: T3, NMDAR2D (Homo sapiens, UniProt O15399); experiment: as above; type: biochemical; details: 50 μM glutamate; relative to 1 mM glycine
T3 construct: expressed in transfected cells; host or cells: HEK cells (membrane extract)
T3 sequence (O15399 28-1336, species assumed, other chains not shown): as above
Procedure: as §2, §3, §4, §5

[3] = Oral pharmacokinetics in Sprague Dawley rats (plasma, brain, CSF); type: in vivo; details: rat, 10 mg/kg
Procedure: In another experiment, Sprague Dawley rats were dosed per os (oral gavage) using a normal saline formulation containing 10 mg/kg of the compounds identified in the table below. Plasma, brain, and CSF samples were analyzed at various time points over a 24 hour period. The table below summarizes the results of the oral pharmacokinetics, where the first three values (Tmax, Cmax and AUClast) are plasma values.

[4] = Microsomal stability (Rat); type: in vitro ADME; details: after 60 minutes
Procedure: (§6) Microsomal stability of disclosed compounds was investigated. The following table indicates the percent of compound remaining after 60 minutes.

[5] = Microsomal stability (Human); type: in vitro ADME; details: after 60 minutes
Procedure: as §6

Plasma stability (Rat) = type: in vitro ADME; details: after 60 minutes
Procedure: (§7) Plasma stability of disclosed compounds was investigated. The following table indicates the percent of compound remaining after 60 minutes.

[6] = IV pharmacokinetics in Sprague Dawley rats; type: in vivo; details: Sprague-Dawley, rat, in vivo, iv, 2 mg/kg, normal saline
Procedure: Sprague Dawley rats were dosed intravenously using a normal saline formulation containing 2 mg/kg of the compounds identified in the below table. The table below summarizes the results of the IV pharmacokinetics.

Plasma stability (Human) = type: in vitro ADME; details: after 60 minutes
Procedure: as §7

NMDAR2B = molecular target: T4, NMDAR2B (Homo sapiens, UniProt Q13224); experiment: NMDAR agonist assay, [3H]MK-801 binding, NMDAR2B expressing HEK cell membranes; type: biochemical; details: 50 μM glutamate; read-out: NMDAR2B B: log EC50 (converted)
T4 construct: expressed in transfected cells; host or cells: HEK cells (membrane extract)
T4 sequence (Q13224 27-1484, species assumed, other chains not shown): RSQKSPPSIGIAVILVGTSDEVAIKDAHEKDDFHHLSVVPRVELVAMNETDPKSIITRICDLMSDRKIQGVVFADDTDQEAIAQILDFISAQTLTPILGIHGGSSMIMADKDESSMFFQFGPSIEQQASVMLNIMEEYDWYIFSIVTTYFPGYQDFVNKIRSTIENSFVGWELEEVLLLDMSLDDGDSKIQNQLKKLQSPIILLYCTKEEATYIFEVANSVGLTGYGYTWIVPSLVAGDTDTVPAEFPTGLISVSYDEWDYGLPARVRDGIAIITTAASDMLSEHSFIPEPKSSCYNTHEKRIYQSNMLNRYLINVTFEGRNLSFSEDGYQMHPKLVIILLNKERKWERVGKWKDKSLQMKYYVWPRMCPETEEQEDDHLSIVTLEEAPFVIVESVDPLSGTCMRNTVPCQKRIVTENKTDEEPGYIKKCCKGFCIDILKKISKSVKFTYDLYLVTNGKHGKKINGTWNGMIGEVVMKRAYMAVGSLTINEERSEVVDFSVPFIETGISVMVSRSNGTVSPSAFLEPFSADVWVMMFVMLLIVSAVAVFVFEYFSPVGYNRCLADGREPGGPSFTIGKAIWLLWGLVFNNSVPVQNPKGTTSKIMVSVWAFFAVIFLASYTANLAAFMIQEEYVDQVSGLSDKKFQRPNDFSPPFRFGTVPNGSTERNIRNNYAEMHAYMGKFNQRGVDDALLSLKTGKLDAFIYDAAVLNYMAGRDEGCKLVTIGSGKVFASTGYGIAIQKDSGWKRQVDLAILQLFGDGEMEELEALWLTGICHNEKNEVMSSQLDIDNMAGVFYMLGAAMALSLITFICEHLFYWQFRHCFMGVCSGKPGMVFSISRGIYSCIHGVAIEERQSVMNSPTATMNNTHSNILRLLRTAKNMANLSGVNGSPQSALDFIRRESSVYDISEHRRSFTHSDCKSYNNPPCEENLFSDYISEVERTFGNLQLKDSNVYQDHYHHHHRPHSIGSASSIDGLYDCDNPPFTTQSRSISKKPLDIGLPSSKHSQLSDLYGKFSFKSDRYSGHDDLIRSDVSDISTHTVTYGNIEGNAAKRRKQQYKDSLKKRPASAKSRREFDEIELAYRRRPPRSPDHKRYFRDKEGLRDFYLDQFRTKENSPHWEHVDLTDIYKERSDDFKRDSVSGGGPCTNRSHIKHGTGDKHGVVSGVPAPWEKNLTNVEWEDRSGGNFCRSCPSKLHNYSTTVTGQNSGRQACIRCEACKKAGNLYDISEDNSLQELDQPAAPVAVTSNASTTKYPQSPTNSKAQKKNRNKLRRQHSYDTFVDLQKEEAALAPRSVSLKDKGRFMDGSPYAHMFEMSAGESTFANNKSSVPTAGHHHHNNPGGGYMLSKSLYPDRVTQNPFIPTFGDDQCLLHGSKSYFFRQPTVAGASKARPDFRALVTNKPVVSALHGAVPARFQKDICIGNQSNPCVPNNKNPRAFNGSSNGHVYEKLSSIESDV
Summary of the method: as §1

NMDAR2C = molecular target: T5, NMDAR2C (Homo sapiens, UniProt Q14957); experiment: NMDAR agonist assay, [3H]MK-801 binding, NMDAR2C expressing HEK cell membranes; type: biochemical; details: 50 μM glutamate
T5 construct: expressed in transfected cells; host or cells: HEK cells (membrane extract)
T5 sequence (Q14957 20-1233, species assumed, other chains not shown): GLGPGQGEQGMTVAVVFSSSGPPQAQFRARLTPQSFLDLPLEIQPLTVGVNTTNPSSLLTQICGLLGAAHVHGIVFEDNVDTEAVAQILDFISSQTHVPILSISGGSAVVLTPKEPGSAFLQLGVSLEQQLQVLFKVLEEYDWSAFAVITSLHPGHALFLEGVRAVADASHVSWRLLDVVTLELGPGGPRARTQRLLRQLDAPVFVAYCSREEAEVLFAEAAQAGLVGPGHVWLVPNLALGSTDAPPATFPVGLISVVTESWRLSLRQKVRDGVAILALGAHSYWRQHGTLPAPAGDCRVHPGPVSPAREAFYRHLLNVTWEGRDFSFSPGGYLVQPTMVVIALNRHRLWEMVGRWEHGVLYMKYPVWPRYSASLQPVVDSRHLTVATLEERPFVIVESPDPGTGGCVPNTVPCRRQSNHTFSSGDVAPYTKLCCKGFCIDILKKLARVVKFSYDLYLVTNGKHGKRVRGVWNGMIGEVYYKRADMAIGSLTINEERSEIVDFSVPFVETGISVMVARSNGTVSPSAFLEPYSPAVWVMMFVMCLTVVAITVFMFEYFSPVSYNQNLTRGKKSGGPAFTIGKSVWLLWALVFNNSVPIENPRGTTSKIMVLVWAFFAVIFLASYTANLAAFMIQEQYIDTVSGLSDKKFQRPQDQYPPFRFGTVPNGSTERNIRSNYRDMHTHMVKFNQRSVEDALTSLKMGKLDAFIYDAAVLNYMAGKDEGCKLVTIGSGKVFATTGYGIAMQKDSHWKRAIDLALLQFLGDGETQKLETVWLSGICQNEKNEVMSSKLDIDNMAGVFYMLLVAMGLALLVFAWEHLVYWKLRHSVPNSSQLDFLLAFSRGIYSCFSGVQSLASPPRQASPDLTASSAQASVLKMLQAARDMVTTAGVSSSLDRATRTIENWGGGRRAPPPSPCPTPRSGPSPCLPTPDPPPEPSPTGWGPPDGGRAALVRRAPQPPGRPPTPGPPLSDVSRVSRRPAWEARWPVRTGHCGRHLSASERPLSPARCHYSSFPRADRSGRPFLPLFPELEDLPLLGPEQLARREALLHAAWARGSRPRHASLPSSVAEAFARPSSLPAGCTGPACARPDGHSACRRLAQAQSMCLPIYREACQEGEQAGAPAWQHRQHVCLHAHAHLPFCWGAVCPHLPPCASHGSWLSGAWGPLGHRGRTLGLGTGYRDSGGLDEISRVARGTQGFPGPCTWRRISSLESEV
Procedure: as §2, §3, §4, §5

O=C1NCCCC12CCCN2 (stereo not shown) [EU-2, 1,7-diazaspiro[4.5]decan-6-one]
% reduction in float time (Sprague Dawley rats; 1 wk post-dose): 46%
Significance vs. vehicle (Sprague Dawley rats; 1 wk post-dose): Yes
% reduction in float time (Sprague Dawley rats; 1 h post-dose): 55%
Significance vs. vehicle (Sprague Dawley rats; 1 h post-dose): Yes
NMDAR2A B: log EC50 (NMDAR2A): −
EC50 (NMDAR2D [1]): < 1 nM
NMDAR2D A: % maximal [3H]MK-801 binding relative to 1 mM glycine (NMDAR2D [2]): ++ (>100%=++)
Tmax ([3]; Sprague-Dawley, po, per os, plasma, read-out: Tmax): 1 h
AUC(0-t) ([3]; Sprague-Dawley, plasma, po, per os): 4.43 µg·h/mL
bioavailability ([3]; Sprague-Dawley, plasma, po, per os 10 mg/kg): 100%
Cmax ([3]; Sprague-Dawley, plasma, po, per os, plasma, read-out: Cmax): 1.86 µg/mL
CSF Cmax ([3]; per os, CSF): 0.4367 µg/mL
Brain Cmax ([3]; per os, brain): 0.5931 µg/mL
Microsomal (Rat): percent of compound remaining [4]: 94%
Microsomal (Human): percent of compound remaining [5]: 100%
Plasma (Rat): percent of compound remaining (Plasma stability (Rat)): 95%
AUC(0-t) [6]: 4 µg·h/mL
clearance [6]: 0.527 L/h/kg
half-life [6]: 1.61 h
Cmax ([6]; read-out: Cmax): 2.14 µg/mL
Vd ([6]; read-out: Vss): 0.94 L/kg
Plasma (Human): percent of compound remaining (Plasma stability (Human)): 74%
EC50 (NMDAR2B): < 1 nM
EC50 (NMDAR2C; read-out: NMDAR2C B: log EC50 (converted)): < 1 nM
NMDAR2C A: % maximal [3H]MK-801 binding relative to 1 mM glycine (NMDAR2C; relative to 1 mM glycine): + (<100%=+)
